# Data reported in US20230118688A1, “1H-PYRAZOLO[4,3-d]PYRIMIDINE COMPOUNDS AS TOLL-LIKE RECEPTOR 7 (TLR7) AGONISTS” (BRISTOL-MYERS SQUIBB COMPANY, priority 2020, published 2023).
# Tests used:
# [1] = test system: CD69; test: Induction of CD69 in human whole blood; format: cell-based; settings: 17 h, CD69 surface staining, 100% set to 1 uM resiquimod, average where assay repeated, Table A1, read-out: hWB CD69 EC50
# Description: The induction of Type I interferon (IFN) MX-1 genes and the B-cell activation marker CD69 are downstream events that occur upon activation of the TLR7 pathway. The following is a human whole blood assay that measures their induction in response to a TLR7 agonist.
# Heparinized human whole blood was harvested from human subjects and treated with test TLR7 agonist compounds at 1 mM. The blood was diluted with RPMI 1640 media and Echo was used to predot 10 nL per well giving a final concentration of 1 uM (10 nL in 10 uL of blood). After mixing on a shaker for 30 sec, the plates were covered and placed in a 37° C. chamber for o/n=17 hrs. Fixing/lysis buffer was prepared (5×->1× in H2O, warm at 37° C.; Cat #BD 558049) and kept the perm buffer (on ice) for later use.
# For surface markers staining (CD69): prepared surface Abs: 0.045 ul hCD14-FITC (ThermoFisher Cat #MHCD1401)+0.6 ul hCD19-ef450 (ThermoFisher Cat #48-0198-42)+1.5 ul hCD69-PE (cat #BD555531)+0.855 ul FACS buffer. Added 3 ul/well, spin1000 rpm for 1 min and mixed on shaker for 30 sec, put on ice for 30 mins. Stop stimulation after 30 minutes with 70 uL of prewarmed 1× fix/lysis buffer and use Feliex mate to resuspend (15 times, change tips for each plate) and incubate at 37C for 10 minutes.
# Centrifuge at 2000 rpm for 5 minutes aspirate with HCS plate washer, mix on shaker for 30 sec and then wash with 70 uL in dPBS and pelleted 2×s (2000 rpm for 5 min) and 50 ul wash in FACS buffer pelleted 1×s(2000 rpm for 5 min). Mix on shaker for 30 sec. For Intracellular markers staining (MX-1): Add 50 ul of BD Perm buffer III and mix on shaker for 30 sec. Incubate on ice for 30 minutes (in the dark). Wash with 50 uL of FACS buffer 2× (spin @2300 rpm×5 min after perm) followed by mixing on shaker for 30 sec. Resuspended in 20 ul of FACS buffer containing MX1 antibody ( ) (4812)-Alexa 647: Novus Biologicals #NBP2-43704AF647) 20 ul FACS bf+0.8 ul hlgG+0.04 ul MX-1. Spin 1000 rpm for 1 min, mix on shaker for 30se and the samples were incubated at RT in the dark for 45 minutes followed by washing 2×FACS buffer (spin @2300 rpm×5 min after perm). Resuspend 20 ul (35 uL total per well) of FACS buffer and cover with foil and place in 4° C. to read the following day. Plates were read on iQuePlus. The results were loaded into toolset and IC50 curves are generated in curve master. The y-axis 100% is set to 1 uM of resiquimod.
# [2] = biological target: T1, human TLR7 (Homo sapiens, UniProt Q9NYK1); test: Human TLR7 agonist activity reporter assay (HEK-Blue TLR7 cells, SEAP reporter); format: cell-based; settings: 18 h treatment, average where assay repeated, Table A1, read-out: hTLR7 Agonism EC50
# T1 construct: host or cells: HEK-Blue TLR7 cells (engineered human embryonic kidney cells)
# T1 sequence (Q9NYK1 27-1049): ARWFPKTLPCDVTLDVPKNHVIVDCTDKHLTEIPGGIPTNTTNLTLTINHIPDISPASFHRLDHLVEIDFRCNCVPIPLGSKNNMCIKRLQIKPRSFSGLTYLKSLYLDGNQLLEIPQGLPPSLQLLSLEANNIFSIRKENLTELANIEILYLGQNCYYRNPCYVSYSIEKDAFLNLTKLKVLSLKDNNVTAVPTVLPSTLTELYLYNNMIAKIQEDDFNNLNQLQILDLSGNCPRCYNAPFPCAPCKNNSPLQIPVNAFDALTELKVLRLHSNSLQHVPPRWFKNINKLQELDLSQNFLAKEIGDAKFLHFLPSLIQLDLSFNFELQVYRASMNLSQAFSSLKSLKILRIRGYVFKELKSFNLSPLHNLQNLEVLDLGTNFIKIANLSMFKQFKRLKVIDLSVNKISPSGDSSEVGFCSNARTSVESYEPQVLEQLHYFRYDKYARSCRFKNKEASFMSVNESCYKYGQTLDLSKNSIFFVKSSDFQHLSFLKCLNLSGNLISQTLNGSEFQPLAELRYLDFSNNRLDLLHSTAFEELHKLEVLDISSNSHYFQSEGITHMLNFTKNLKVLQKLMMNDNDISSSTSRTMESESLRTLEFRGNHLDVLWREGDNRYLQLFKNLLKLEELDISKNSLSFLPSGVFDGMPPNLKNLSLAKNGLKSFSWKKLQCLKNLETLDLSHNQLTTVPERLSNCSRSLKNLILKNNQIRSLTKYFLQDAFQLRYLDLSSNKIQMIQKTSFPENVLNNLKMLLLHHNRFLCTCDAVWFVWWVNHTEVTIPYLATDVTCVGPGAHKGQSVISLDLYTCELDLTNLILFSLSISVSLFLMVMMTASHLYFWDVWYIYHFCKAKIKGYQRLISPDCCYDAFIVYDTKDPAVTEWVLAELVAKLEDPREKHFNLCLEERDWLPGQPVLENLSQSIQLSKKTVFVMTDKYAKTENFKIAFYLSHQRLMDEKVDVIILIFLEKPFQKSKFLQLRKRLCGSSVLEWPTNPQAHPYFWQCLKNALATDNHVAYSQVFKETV
# Description: This procedure describes a method for assaying human TLR7 (hTLR7) agonist activity of the compounds disclosed in this specification.
# HEK-Blue™ TLR7 cells were added to each well of a 384-well tissue-culture plate (15,000 cells per well) and incubated 16-18 h at 37° C., 5% CO2. Compounds (100 nl) were dispensed into wells containing the HEK-Blue™ TLR cells and the treated cells were incubated at 37° C., 5% CO2. After 18 h treatment ten microliters of freshly-prepared Quanti-Blue™ reagent (Invivogen) was added to each well, incubated for 30 min (37° C., 5% CO2) and SEAP levels measured using an Envision plate reader (OD=620 nm). The half maximal effective concentration values (EC50; compound concentration which induced a response halfway between the assay baseline and maximum) were calculated.
SMILES,EC50 [1],EC50 [2]
"CCCCNc1nc(N)nc2cnn(Cc3cc(CN(C)CCN(C)C)ccc3OC)c12 [Compound 133, N7-butyl-1-{[5-({[2-(dimethylamino)ethyl](methyl)-amino}methyl)-2-methoxy-phenyl]methyl}-1H-pyrazolo [4,3-d]pyrimidine-5,7-diamine]",17 nM,176 nM
"CCCCNc1nc(N)nc2cnn(Cc3cc(CN4CCNCC4)ccc3OC)c12 [Compound 134, N7-butyl-1-({2-methoxy-5-[(piperazin-1-yl)methyl]-phenyl}methyl)-1H-pyrazolo[4,3-d]pyrimidine-5,7-diamine]",62.5 nM,201 nM
"CCCCNc1nc(N)nc2cnn(Cc3cc(CNC(=O)CN(C)C)ccc3OC)c12 [Compound 136, N-[(3-{[5-amino-7-(butyl-amino)-1H-pyrazolo[4,3-d]pyrimidin-1-yl]methyl}-4-methoxyphenyl)methyl]-2-(dimethylamino)acetamide]",19.1 nM,51.1 nM
"CCCCNc1nc(N)nc2cnn(Cc3cc(CN4CC(N(C)C)C4)ccc3OC)c12 [Compound 137, N7-butyl-1-[(5-{[3-(dime-thylamino)azetidin-1-yl]-methyl}-2-methoxyphenyl)methyl]-1H-pyrazolo-[4,3-d]pyrimidine-5,7-diamine]",28.1 nM,114 nM
"CCCCNc1nc(N)nc2cnn(Cc3cc(CN4CCN(C(=O)C5CCC5)CC4)ccc3OC)c12 [Compound 138, N7-butyl-1-({5-[(4-cyclo-butanecarbonylpiperazin-1-yl)methyl]-2-methoxy-phenyl}methyl)-1H-pyrazolo-[4,3-d]pyrimidine-5,7-diamine]",≥ 1000 nM,2070 nM
"CCCCNc1nc(N)nc2cnn(Cc3cc(COC)ccc3OC)c12 [Compound 139, N7-butyl-1-{[2-methoxy-5-(methoxymethyl)phenyl]-methyl}-1H-pyrazolo[4,3-d]pyrimidine-5,7-diamine]",894 nM,331 nM
"CCCCNc1nc(N)nc2cnn(Cc3cc(CO)ccc3OC)c12 [Compound 140, (3-((5-amino-7-(butylamino)-1H-pyrazolo[4,3-d]pyrimidin-1-yl)methyl)-4-methoxyphenyl)methanol]",134 nM,27.5 nM
"CCCCNc1nc(N)nc2cnn(Cc3cc(COC4COC4)ccc3OC)c12 [Compound 141, N7-butyl-1-({2-methoxy-5-[(oxetan-3-yloxy)me-thyl]phenyl}methyl)-1H-pyrazolo[4,3-d]pyrimidine-5,7-diamine]",831 nM,498 nM

# Further lines, results first:
EC50 [1],EC50 [2],SMILES
725 nM,424 nM,"CCCCNc1nc(N)nc2cnn(Cc3cc(COCCCO)ccc3OC)c12 [Compound 143, 3-[(3-{[5-amino-7-(butyl-amino)-1H-pyrazolo[4,3-d]pyrimidin-1-yl]methyl}-4-methoxyphenyl)-methoxy]propan-1-ol]"
≥ 1000 nM,562 nM,"CCCCNc1nc(N)nc2cnn(Cc3cc(COCCC(C)(C)O)ccc3OC)c12 [Compound 144, 4-[(3-{[5-amino-7-(butyl-amino)-1H-pyrazolo[4,3-d]pyrimidin-1-yl]methyl}-4-methoxyphenyl)methoxy]-2-methylbutan-2-ol]"
942 nM,402 nM,"CCCCNc1nc(N)nc2cnn(Cc3cc(C#N)ccc3OC)c12 [Compound 145, 3-{[5-amino-7-(butyl-amino)-1H-pyrazolo[4,3-d]pyrimidin-1-yl]methyl}-4-methoxybenzonitrile]"
≥ 1000 nM,499 nM,"CCCCNc1nc(N)nc2cnn(Cc3cc(CN(C)C(=O)CCOC)ccc3OC)c12 [Compound 146, N-[(3-{[5-amino-7-(butyl-amino)-1H-pyrazolo[4,3-d]pyrimidin-1-yl]methyl}-4-methoxyphenyl)methyl]-3-methoxy-N-methylpropanamide]"
455 nM,170 nM,"CCCCNc1nc(N)nc2cnn(Cc3cc(CN(C)C(=O)CCO)ccc3OC)c12 [Compound 147, N-[(3-{[5-amino-7-(butyl-amino)-1H-pyrazolo[4,3-d]pyrimidin-1-yl]methyl}-4-methoxyphenyl)methyl]-3-hydroxy-N-methylpropanamide]"
